The source made the active and inactive calls. No cut-off for these calls is given here.
Columns and labels:
Assay type in all cases: functional, organism-based
Settings in all cases: Trachea
Pseudomonas aeruginosa [1] = experiment: Antimicrobial activity against Pseudomonas aeruginosa 2C2 tracheal isolates from mechanically ventilated tuberculosis patient
Pseudomonas aeruginosa [2] = experiment: Antimicrobial activity against Pseudomonas aeruginosa 5F8 tracheal isolates from mechanically ventilated chronic respiratory insufficiency patient
Pseudomonas aeruginosa [3] = experiment: Antimicrobial activity against Pseudomonas aeruginosa 1B9 tracheal isolates from mechanically ventilated tuberculosis patient
Pseudomonas aeruginosa [4] = experiment: Antimicrobial activity against Pseudomonas aeruginosa 9A1 tracheal isolates from mechanically ventilated chronic respiratory insufficiency patient
Pseudomonas aeruginosa [5] = experiment: Antimicrobial activity against Pseudomonas aeruginosa 3D1 tracheal isolates from mechanically ventilated chronic respiratory insufficiency patient
Pseudomonas aeruginosa [6] = experiment: Antimicrobial activity against Pseudomonas aeruginosa 24E5 tracheal isolates from mechanically ventilated chronic respiratory insufficiency patient
Pseudomonas aeruginosa [7] = experiment: Antimicrobial activity against Pseudomonas aeruginosa 22E1 tracheal isolates from mechanically ventilated chronic respiratory insufficiency patient
Pseudomonas aeruginosa [8] = experiment: Antimicrobial activity against Pseudomonas aeruginosa P21.23 tracheal isolates from mechanically ventilated tuberculosis patient
Pseudomonas aeruginosa [9] = experiment: Antimicrobial activity against Pseudomonas aeruginosa 9A7 tracheal isolates from mechanically ventilated chronic respiratory insufficiency patient
Pseudomonas aeruginosa [10] = experiment: Antimicrobial activity against Pseudomonas aeruginosa 19B3 tracheal isolates from mechanically ventilated chronic respiratory insufficiency patient
Pseudomonas aeruginosa [11] = experiment: Antimicrobial activity against Pseudomonas aeruginosa 22C5 tracheal isolates from mechanically ventilated chronic respiratory insufficiency patient
Pseudomonas aeruginosa [12] = experiment: Antimicrobial activity against Pseudomonas aeruginosa 24G1 tracheal isolates from mechanically ventilated chronic respiratory insufficiency patient
Pseudomonas aeruginosa [13] = experiment: Antimicrobial activity against Pseudomonas aeruginosa 3D10 tracheal isolates from mechanically ventilated chronic respiratory insufficiency patient
Pseudomonas aeruginosa [14] = experiment: Antimicrobial activity against Pseudomonas aeruginosa 12A3 tracheal isolates from mechanically ventilated chronic respiratory insufficiency patient
Pseudomonas aeruginosa [15] = experiment: Antimicrobial activity against Pseudomonas aeruginosa 65.68-2 tracheal isolates from mechanically ventilated tuberculosis patient
Pseudomonas aeruginosa [16] = experiment: Antimicrobial activity against Pseudomonas aeruginosa 65.33-1 tracheal isolates from mechanically ventilated tuberculosis patient
Pseudomonas aeruginosa [17] = experiment: Antimicrobial activity against Pseudomonas aeruginosa 29F6 tracheal isolates from mechanically ventilated chronic respiratory insufficiency patient
Pseudomonas aeruginosa [18] = experiment: Antimicrobial activity against Pseudomonas aeruginosa 9B5 tracheal isolates from mechanically ventilated chronic respiratory insufficiency patient
Pseudomonas aeruginosa [19] = experiment: Antimicrobial activity against Pseudomonas aeruginosa 9A3 tracheal isolates from mechanically ventilated chronic respiratory insufficiency patient
Pseudomonas aeruginosa [20] = experiment: Antimicrobial activity against Pseudomonas aeruginosa 5G3 tracheal isolates from mechanically ventilated chronic respiratory insufficiency patient
Pseudomonas aeruginosa [21] = experiment: Antimicrobial activity against Pseudomonas aeruginosa 10B1 tracheal isolates from mechanically ventilated chronic respiratory insufficiency patient
Pseudomonas aeruginosa [22] = experiment: Antimicrobial activity against Pseudomonas aeruginosa 8B11 tracheal isolates from mechanically ventilated chronic respiratory insufficiency patient
Pseudomonas aeruginosa [23] = experiment: Antimicrobial activity against Pseudomonas aeruginosa 5H6 tracheal isolates from mechanically ventilated chronic respiratory insufficiency patient
Pseudomonas aeruginosa [24] = experiment: Antimicrobial activity against Pseudomonas aeruginosa 65.68-1 tracheal isolates from mechanically ventilated tuberculosis patient
Pseudomonas aeruginosa [25] = experiment: Antimicrobial activity against Pseudomonas aeruginosa 29G6 tracheal isolates from mechanically ventilated chronic respiratory insufficiency patient
Pseudomonas aeruginosa [26] = experiment: Antimicrobial activity against Pseudomonas aeruginosa 2C1 tracheal isolates from mechanically ventilated tuberculosis patient
Pseudomonas aeruginosa [27] = experiment: Antimicrobial activity against Pseudomonas aeruginosa P21.21 tracheal isolates from mechanically ventilated tuberculosis patient
Pseudomonas aeruginosa [28] = experiment: Antimicrobial activity against Pseudomonas aeruginosa 8C4 tracheal isolates from mechanically ventilated chronic respiratory insufficiency patient
Pseudomonas aeruginosa [29] = experiment: Antimicrobial activity against Pseudomonas aeruginosa 9B2 tracheal isolates from mechanically ventilated chronic respiratory insufficiency patient
Pseudomonas aeruginosa [30] = experiment: Antimicrobial activity against Pseudomonas aeruginosa 2A2 tracheal isolates from mechanically ventilated tuberculosis patient
Pseudomonas aeruginosa [31] = experiment: Antimicrobial activity against Pseudomonas aeruginosa 10A9 tracheal isolates from mechanically ventilated chronic respiratory insufficiency patient
Pseudomonas aeruginosa [32] = experiment: Antimicrobial activity against Pseudomonas aeruginosa 8A2 tracheal isolates from mechanically ventilated chronic respiratory insufficiency patient
Pseudomonas aeruginosa [33] = experiment: Antimicrobial activity against Pseudomonas aeruginosa 3E2 tracheal isolates from mechanically ventilated chronic respiratory insufficiency patient
Pseudomonas aeruginosa [34] = experiment: Antimicrobial activity against Pseudomonas aeruginosa 65.36-3 tracheal isolates from mechanically ventilated tuberculosis patient
Pseudomonas aeruginosa [35] = experiment: Antimicrobial activity against Pseudomonas aeruginosa 65.36-4 tracheal isolates from mechanically ventilated tuberculosis patient
Pseudomonas aeruginosa [36] = experiment: Antimicrobial activity against Pseudomonas aeruginosa 5F2 tracheal isolates from mechanically ventilated chronic respiratory insufficiency patient
Pseudomonas aeruginosa [37] = experiment: Antimicrobial activity against Pseudomonas aeruginosa 65.18-4 tracheal isolates from mechanically ventilated tuberculosis patient
Pseudomonas aeruginosa [38] = experiment: Antimicrobial activity against Pseudomonas aeruginosa 65.38-1 tracheal isolates from mechanically ventilated tuberculosis patient
Pseudomonas aeruginosa [39] = experiment: Antimicrobial activity against Pseudomonas aeruginosa 65.68-3 tracheal isolates from mechanically ventilated tuberculosis patient
Pseudomonas aeruginosa [40] = experiment: Antimicrobial activity against Pseudomonas aeruginosa 10B3 tracheal isolates from mechanically ventilated chronic respiratory insufficiency patient
Pseudomonas aeruginosa [41] = experiment: Antimicrobial activity against Pseudomonas aeruginosa 15H5 tracheal isolates from mechanically ventilated chronic respiratory insufficiency patient
Pseudomonas aeruginosa [42] = experiment: Antimicrobial activity against Pseudomonas aeruginosa 22D6 tracheal isolates from mechanically ventilated chronic respiratory insufficiency patient
Pseudomonas aeruginosa [43] = experiment: Antimicrobial activity against Pseudomonas aeruginosa 2A5 tracheal isolates from mechanically ventilated chronic respiratory insufficiency patient
Pseudomonas aeruginosa [44] = experiment: Antimicrobial activity against Pseudomonas aeruginosa 13E1 tracheal isolates from mechanically ventilated chronic respiratory insufficiency patient
Pseudomonas aeruginosa [45] = experiment: Antimicrobial activity against Pseudomonas aeruginosa 2A6 tracheal isolates from mechanically ventilated tuberculosis patient
Pseudomonas aeruginosa [46] = experiment: Antimicrobial activity against Pseudomonas aeruginosa 2A7 tracheal isolates from mechanically ventilated tuberculosis patient
Pseudomonas aeruginosa [47] = experiment: Antimicrobial activity against Pseudomonas aeruginosa 65.38-3 tracheal isolates from mechanically ventilated tuberculosis patient
Pseudomonas aeruginosa [48] = experiment: Antimicrobial activity against Pseudomonas aeruginosa 22D2 tracheal isolates from mechanically ventilated chronic respiratory insufficiency patient
Pseudomonas aeruginosa [49] = experiment: Antimicrobial activity against Pseudomonas aeruginosa 12B2 tracheal isolates from mechanically ventilated chronic respiratory insufficiency patient
Pseudomonas aeruginosa [50] = experiment: Antimicrobial activity against Pseudomonas aeruginosa 65.68-4 tracheal isolates from mechanically ventilated tuberculosis patient
Pseudomonas aeruginosa [51] = experiment: Antimicrobial activity against Pseudomonas aeruginosa 19B6 tracheal isolates from mechanically ventilated chronic respiratory insufficiency patient
Pseudomonas aeruginosa [52] = experiment: Antimicrobial activity against Pseudomonas aeruginosa 8A12 tracheal isolates from mechanically ventilated chronic respiratory insufficiency patient
Pseudomonas aeruginosa [53] = experiment: Antimicrobial activity against Pseudomonas aeruginosa 29G7 tracheal isolates from mechanically ventilated chronic respiratory insufficiency patient
Pseudomonas aeruginosa [54] = experiment: Antimicrobial activity against Pseudomonas aeruginosa 19C7 tracheal isolates from mechanically ventilated chronic respiratory insufficiency patient
Pseudomonas aeruginosa [55] = experiment: Antimicrobial activity against Pseudomonas aeruginosa 19D9 tracheal isolates from mechanically ventilated chronic respiratory insufficiency patient
Pseudomonas aeruginosa [56] = experiment: Antimicrobial activity against Pseudomonas aeruginosa 2A9 tracheal isolates from mechanically ventilated tuberculosis patient
Pseudomonas aeruginosa [57] = experiment: Antimicrobial activity against Pseudomonas aeruginosa 65.33-2 tracheal isolates from mechanically ventilated tuberculosis patient
Pseudomonas aeruginosa [58] = experiment: Antimicrobial activity against Pseudomonas aeruginosa 2A5 tracheal isolates from mechanically ventilated tuberculosis patient
Pseudomonas aeruginosa [59] = experiment: Antimicrobial activity against Pseudomonas aeruginosa 65.36-1 tracheal isolates from mechanically ventilated tuberculosis patient

## NCC[C@H](O)C(=O)N[C@@H]1C[C@H](N)[C@@H](O[C@H]2O[C@H](CN)[C@@H](O)[C@H](O)[C@H]2O)[C@H](O)[C@H]1O[C@H]1O[C@H](CO)[C@@H](O)[C@H](N)[C@H]1O
Pseudomonas aeruginosa [1]
  Activity: Active
Pseudomonas aeruginosa [2]
  Activity: Active
Pseudomonas aeruginosa [3]
  Activity: inactive
Pseudomonas aeruginosa [4]
  Activity: Active
Pseudomonas aeruginosa [5]
  Activity: Active
Pseudomonas aeruginosa [6]
  Activity: Active
Pseudomonas aeruginosa [7]
  Activity: Active
Pseudomonas aeruginosa [8]
  Activity: Active
Pseudomonas aeruginosa [9]
  Activity: Active
Pseudomonas aeruginosa [10]
  Activity: Active
Pseudomonas aeruginosa [11]
  Activity: Active
Pseudomonas aeruginosa [12]
  Activity: Active
Pseudomonas aeruginosa [13]
  Activity: Active
Pseudomonas aeruginosa [14]
  Activity: Active
Pseudomonas aeruginosa [15]
  Activity: Active
Pseudomonas aeruginosa [16]
  Activity: Active
Pseudomonas aeruginosa [17]
  Activity: Active
Pseudomonas aeruginosa [18]
  Activity: Active
Pseudomonas aeruginosa [19]
  Activity: Active
Pseudomonas aeruginosa [20]
  Activity: Active
Pseudomonas aeruginosa [21]
  Activity: Active
Pseudomonas aeruginosa [22]
  Activity: Active
Pseudomonas aeruginosa [23]
  Activity: Active
Pseudomonas aeruginosa [24]
  Activity: Active
Pseudomonas aeruginosa [25]
  Activity: Active
Pseudomonas aeruginosa [26]
  Activity: inactive
Pseudomonas aeruginosa [27]
  Activity: Active
Pseudomonas aeruginosa [28]
  Activity: Active
Pseudomonas aeruginosa [29]
  Activity: Active
Pseudomonas aeruginosa [30]
  Activity: Active
Pseudomonas aeruginosa [31]
  Activity: Active
Pseudomonas aeruginosa [32]
  Activity: Active
Pseudomonas aeruginosa [33]
  Activity: Active
Pseudomonas aeruginosa [34]
  Activity: inactive
Pseudomonas aeruginosa [35]
  Activity: inactive
Pseudomonas aeruginosa [36]
  Activity: Active
Pseudomonas aeruginosa [37]
  Activity: Active
Pseudomonas aeruginosa [38]
  Activity: inactive
Pseudomonas aeruginosa [39]
  Activity: Active
Pseudomonas aeruginosa [40]
  Activity: Active
Pseudomonas aeruginosa [41]
  Activity: Active
Pseudomonas aeruginosa [42]
  Activity: Active
Pseudomonas aeruginosa [43]
  Activity: Active
Pseudomonas aeruginosa [44]
  Activity: Active
Pseudomonas aeruginosa [45]
  Activity: inactive
Pseudomonas aeruginosa [46]
  Activity: inactive
Pseudomonas aeruginosa [47]
  Activity: inactive
Pseudomonas aeruginosa [48]
  Activity: Active
Pseudomonas aeruginosa [49]
  Activity: Active
Pseudomonas aeruginosa [50]
  Activity: Active
Pseudomonas aeruginosa [51]
  Activity: Active
Pseudomonas aeruginosa [52]
  Activity: Active
Pseudomonas aeruginosa [53]
  Activity: Active
Pseudomonas aeruginosa [54]
  Activity: Active
Pseudomonas aeruginosa [55]
  Activity: Active
Pseudomonas aeruginosa [56]
  Activity: inactive

## GENTAMICIN
Pseudomonas aeruginosa [2]
  Activity: Active
Pseudomonas aeruginosa [3]
  Activity: inactive
Pseudomonas aeruginosa [4]
  Activity: Active
Pseudomonas aeruginosa [5]
  Activity: Active
Pseudomonas aeruginosa [7]
  Activity: Active
Pseudomonas aeruginosa [9]
  Activity: Active
Pseudomonas aeruginosa [57]
  Activity: Active
Pseudomonas aeruginosa [10]
  Activity: Active
Pseudomonas aeruginosa [11]
  Activity: Active
Pseudomonas aeruginosa [12]
  Activity: Active
Pseudomonas aeruginosa [13]
  Activity: Active
Pseudomonas aeruginosa [14]
  Activity: Active
Pseudomonas aeruginosa [15]
  Activity: inactive
Pseudomonas aeruginosa [17]
  Activity: Active
Pseudomonas aeruginosa [18]
  Activity: Active
Pseudomonas aeruginosa [19]
  Activity: Active
Pseudomonas aeruginosa [20]
  Activity: Active
Pseudomonas aeruginosa [21]
  Activity: Active
Pseudomonas aeruginosa [22]
  Activity: Active
Pseudomonas aeruginosa [23]
  Activity: Active
Pseudomonas aeruginosa [25]
  Activity: Active
Pseudomonas aeruginosa [26]
  Activity: inactive
Pseudomonas aeruginosa [28]
  Activity: Active
Pseudomonas aeruginosa [29]
  Activity: Active
Pseudomonas aeruginosa [31]
  Activity: Active
Pseudomonas aeruginosa [32]
  Activity: Active
Pseudomonas aeruginosa [33]
  Activity: Active
Pseudomonas aeruginosa [34]
  Activity: inactive
Pseudomonas aeruginosa [58]
  Activity: Active
Pseudomonas aeruginosa [35]
  Activity: inactive
Pseudomonas aeruginosa [36]
  Activity: Active
Pseudomonas aeruginosa [38]
  Activity: inactive
Pseudomonas aeruginosa [39]
  Activity: inactive
Pseudomonas aeruginosa [59]
  Activity: inactive
Pseudomonas aeruginosa [40]
  Activity: Active
Pseudomonas aeruginosa [41]
  Activity: Active
Pseudomonas aeruginosa [43]
  Activity: Active
Pseudomonas aeruginosa [44]
  Activity: Active
Pseudomonas aeruginosa [45]
  Activity: inactive
Pseudomonas aeruginosa [46]
  Activity: inactive
Pseudomonas aeruginosa [47]
  Activity: inactive
Pseudomonas aeruginosa [49]
  Activity: Active
Pseudomonas aeruginosa [50]
  Activity: Active
Pseudomonas aeruginosa [51]
  Activity: Active
Pseudomonas aeruginosa [52]
  Activity: Active
Pseudomonas aeruginosa [53]
  Activity: Active
Pseudomonas aeruginosa [54]
  Activity: Active
Pseudomonas aeruginosa [55]
  Activity: Active
Pseudomonas aeruginosa [56]
  Activity: inactive

## O=C(O)c1cn(C2CC2)c2cc(N3CCNCC3)c(F)cc2c1=O
Pseudomonas aeruginosa [1]
  Activity: Active
Pseudomonas aeruginosa [2]
  Activity: Active
Pseudomonas aeruginosa [3]
  Activity: Active
Pseudomonas aeruginosa [4]
  Activity: Active
Pseudomonas aeruginosa [5]
  Activity: Active
Pseudomonas aeruginosa [6]
  Activity: Active
Pseudomonas aeruginosa [7]
  Activity: Active
Pseudomonas aeruginosa [8]
  Activity: Active
Pseudomonas aeruginosa [9]
  Activity: Active
Pseudomonas aeruginosa [57]
  Activity: Active
Pseudomonas aeruginosa [10]
  Activity: Active
Pseudomonas aeruginosa [11]
  Activity: Active
Pseudomonas aeruginosa [13]
  Activity: Active
Pseudomonas aeruginosa [14]
  Activity: Active
Pseudomonas aeruginosa [15]
  Activity: Active
Pseudomonas aeruginosa [16]
  Activity: Active
Pseudomonas aeruginosa [17]
  Activity: Active
Pseudomonas aeruginosa [18]
  Activity: Active
Pseudomonas aeruginosa [19]
  Activity: Active
Pseudomonas aeruginosa [20]
  Activity: Active
Pseudomonas aeruginosa [21]
  Activity: Active
Pseudomonas aeruginosa [22]
  Activity: Active
Pseudomonas aeruginosa [23]
  Activity: Active
Pseudomonas aeruginosa [24]
  Activity: Active
Pseudomonas aeruginosa [25]
  Activity: Active
Pseudomonas aeruginosa [26]
  Activity: Active
Pseudomonas aeruginosa [27]
  Activity: Active
Pseudomonas aeruginosa [28]
  Activity: Active
Pseudomonas aeruginosa [29]
  Activity: Active
Pseudomonas aeruginosa [30]
  Activity: Active
Pseudomonas aeruginosa [31]
  Activity: Active
Pseudomonas aeruginosa [32]
  Activity: Active
Pseudomonas aeruginosa [33]
  Activity: Active
Pseudomonas aeruginosa [34]
  Activity: Active
Pseudomonas aeruginosa [58]
  Activity: Active
Pseudomonas aeruginosa [35]
  Activity: Active
Pseudomonas aeruginosa [36]
  Activity: Active
Pseudomonas aeruginosa [37]
  Activity: Active
Pseudomonas aeruginosa [38]
  Activity: Active
Pseudomonas aeruginosa [39]
  Activity: Active
Pseudomonas aeruginosa [59]
  Activity: Active
Pseudomonas aeruginosa [40]
  Activity: Active
Pseudomonas aeruginosa [41]
  Activity: Active
Pseudomonas aeruginosa [42]
  Activity: Active
Pseudomonas aeruginosa [43]
  Activity: Active
Pseudomonas aeruginosa [44]
  Activity: Active
Pseudomonas aeruginosa [45]
  Activity: Active
Pseudomonas aeruginosa [46]
  Activity: Active
Pseudomonas aeruginosa [47]
  Activity: Active
Pseudomonas aeruginosa [48]
  Activity: Active
Pseudomonas aeruginosa [49]
  Activity: Active
Pseudomonas aeruginosa [50]
  Activity: Active
Pseudomonas aeruginosa [51]
  Activity: Active
Pseudomonas aeruginosa [52]
  Activity: Active
Pseudomonas aeruginosa [53]
  Activity: Active
Pseudomonas aeruginosa [54]
  Activity: Active
Pseudomonas aeruginosa [55]
  Activity: inactive
Pseudomonas aeruginosa [56]
  Activity: Active
